Key:
[1] = tested on: winter wheat; experiment: Test E winter wheat; type: in vivo, Triticum aestivum; conditions: Preemergence
[2] = tested on: duck salad; experiment: Test B flood test duck salad; type: in vivo, Heteranthera limosa
Procedure, shortened: (§1)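 Read-out is a visual response score from 0 (no effect) to 10 (complete control), assigned by comparison with untreated controls. Treatment was applied at the 2-leaf stage, and plants stayed in the greenhouse for twelve to sixteen days before scoring.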

[3] = tested on: winter barley; experiment: Test E winter barley; type: in vivo, Hordeum vulgare; conditions: Preemergence
[4] = tested on: blackgrass; experiment: Test E blackgrass; type: in vivo, Alopecurus myosuroides; conditions: Preemergence
[5] = tested on: giant foxtail; experiment: Test B pre/postemergence giant foxtail; type: in vivo, Setaria faberii
Procedure, shortened: (§2)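 Test chemicals in a non-phytotoxic solvent mixture with surfactant were sprayed preemergence onto planted seeds and postemergence onto plants 2 to 18 cm tall (1- to 4-leaf stage). After twelve to sixteen days in a greenhouse, injury was visually rated against untreated controls from 0 (no effect) to 10 (complete control).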

[6] = tested on: winter wheat; experiment: Test E winter wheat; type: in vivo, Triticum aestivum; conditions: Postemergence
Procedure, shortened: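 Compounds formulated in non-phytotoxic solvent mixture with surfactant; for postemergence, sprayed on plants at 1- to 4-leaf stage grown in 60:40 sandy loam/greenhouse potting mix. Kept in greenhouse ~21 to 28 days, then visually rated against untreated controls.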

[7] = tested on: wild oat; experiment: Test E wild oat; type: in vivo, Avena fatua; conditions: Preemergence; for Wild oat plant response rating (0 to 100 scale): Rate 250 g/ha
[8] = tested on: morningglory; experiment: Test B pre/postemergence morningglory; type: in vivo, Ipomoea hederacea
Procedure, shortened: as §2

[9] = tested on: Italian ryegrass; experiment: Test E Italian ryegrass; type: in vivo, Lolium multiflorum; conditions: Preemergence
[10] = tested on: rice; experiment: Test B flood test rice; type: in vivo, Oryza sativa
Procedure, shortened: as §1

[11] = tested on: green foxtail; experiment: Test E green foxtail; type: in vivo, Setaria viridis; conditions: Preemergence
[12] = Rate 125 g/ha, 0 to 100 scale (0 no effect, 100 complete control)
[13] = Rate 500 g/ha, 0 to 100 scale where 0 is no effect and 100 is complete control
[14] = Rate 62 g/ha, headed Pre-emergence (flood test species), scale 0 to 10 (0 no effect, 10 complete control)
[15] = Rate 125 g/ha, Pre-emergence, flood test species, scale 0 to 10 where 0 is no effect and 10 is complete control
[16] = Rate 250 g/ha, Pre-emergence, flood-test species, scale 0 to 10, 0 is no effect, 10 is complete control
[17] = Rate 500 g/ha, headed Pre-emergence (flood test species), scale 0 to 10 (0 no effect, 10 complete control)
[18] = Preemergence, Rate 62 g/ha, scale of 0 to 10 where 0 is no effect and 10 is complete control
[19] = Preemergence, Rate 250 g/ha, scale 0 to 10, 0 is no effect, 10 is complete control
[20] = Preemergence, Rate 500 g/ha, scale 0 to 10 (0 no effect, 10 complete control)
[21] = Rate 62 g/ha, Postemergence, scale of 0 to 10 where 0 is no effect and 10 is complete control
[22] = Rate 125 g/ha, Postemergence, scale 0 to 10
[23] = Rate 500 g/ha, Postemergence, scale 0 to 10
[24] = Rate 500 g/ha, 0 to 100 scale, 0 is no effect, 100 is complete control
[25] = Rate 1000 g/ha, 0 to 100 scale where 0 is no effect and 100 is complete control
[26] = Postemergence, Rate 62 g/ha, scale 0 to 10, 0 is no effect, 10 is complete control
[27] = Rate 125 g/ha, Postemergence section (flood test species), scale 0 to 10, 0 no effect, 10 complete control
[28] = Rate 500 g/ha, listed under Postemergence (flood test species), scale 0 to 10, 0 no effect, 10 complete control
[29] = flood test, listed under Postemergence, Rate 250 g/ha, scale 0 to 10, 0 no effect, 10 complete control
[30] = Postemergence, Rate 250 g/ha, scale 0 to 10, 0 no effect, 10 complete control
[31] = Preemergence, Rate 62 g/ha, scale 0 to 10 (0 no effect, 10 complete control)
[32] = Preemergence, Rate 125 g/ha, scale 0 to 10 (0 no effect, 10 complete control)
[33] = Preemergence, Rate 250 g/ha, scale of 0 to 10 where 0 is no effect and 10 is complete control
[34] = Preemergence, Rate 500 g/ha, scale 0 (no effect) to 10 (complete control)
[35] = Rate 125 g/ha, Postemergence, scale 0 to 10, 0 no effect, 10 complete control
[36] = Rate 500 g/ha, Postemergence, scale 0 to 10, 0 no effect, 10 complete control
[37] = Rate 500 g/ha, Pre-emergence, flood test species, scale 0 to 10 (0 no effect, 10 complete control)
[38] = Preemergence, Rate 500 g/ha, scale of 0 to 10 where 0 is no effect and 10 is complete control
[39] = Rate 125 g/ha, Preemergence, scale of 0 to 10 where 0 is no effect and 10 is complete control

Cc1nc(C)c(Cn2c(=O)on(C(=O)N(c3ccc(Cl)cc3)C(C)C)c2=O)s1 [Compound 191]
Plant response rating, Wheat (winter) [1, 12]: 10 | Wheat (winter) plant response rating (0 to 100 scale) ([1]; Rate 250 g/ha): 30 | Plant response rating, Wheat (winter) [1, 13]: 50 | Ducksalad plant response rating [2, 14]: 0 | Ducksalad plant response rating [2, 15]: 0 | Ducksalad plant response rating [2, 16]: 0 | Plant response rating, Ducksalad [2, 17]: 0 | Plant response rating, Barley (winter) [3, 12]: 10 | Barley (winter) plant response rating (0 to 100 scale) ([3]; Rate 250 g/ha): 30 | Plant response rating, Barley (winter) [3, 13]: 20 | Plant response rating, Blackgrass [4, 12]: 10 | Blackgrass plant response rating (0 to 100 scale) ([4]; Rate 250 g/ha): 20 | Plant response rating, Blackgrass [4, 13]: 30 | Giant foxtail plant response rating [5, 18]: 3 | Giant foxtail plant response rating (0 to 10 scale) ([5]; Preemergence, Rate 125 g/ha, 0 is no effect, 10 is complete control): 8 | Giant foxtail plant response rating [5, 19]: 9 | Giant foxtail plant response rating [5, 20]: 10 | Giant foxtail plant response rating [5, 21]: 0 | Giant foxtail plant response rating [5, 22]: 0 | Plant response rating (0 to 10; 0 is no effect, 10 is complete control), Giant foxtail ([5]; Rate 250 g/ha, Postemergence): 0 | Giant foxtail plant response rating [5, 23]: 2 | Plant response rating, Wheat (winter) ([6]; Rate 125 g/ha, 0 to 100 scale): 30 | Plant response rating, Wheat (winter) [6, 24]: 60 | Plant response rating, Wild oat [7, 12]: 30 | Wild oat plant response rating (0 to 100 scale) [7]: 40 | Plant response rating, Wild oat [7, 13]: 50 | Morningglory plant response rating [8, 18]: 0 | Morningglory plant response rating [8, 19]: 0 | Morningglory plant response rating [8, 20]: 0 | Morningglory plant response rating [8, 21]: 1 | Morningglory plant response rating [8, 22]: 2 | Plant response rating (0 to 10; 0 is no effect, 10 is complete control), Morningglory ([8]; Rate 250 g/ha, Postemergence): 2 | Morningglory plant response rating [8, 23]: 8 | Plant response rating, I. Ryegrass [9, 12]: 0 | I. Ryegrass plant response rating (0 to 100 scale) ([9]; Rate 250 g/ha): 0 | Plant response rating, I. Ryegrass [9, 13]: 30 | Rice plant response rating [10, 14]: 0 | Rice plant response rating [10, 15]: 0 | Rice plant response rating [10, 16]: 0 | Plant response rating, Rice [10, 17]: 0 | Plant response rating, Green foxtail [11, 12]: 30 | Green foxtail plant response rating (0 to 100 scale) ([11]; Rate 250 g/ha): 40 | Plant response rating, Green foxtail [11, 13]: 50

Cc1nn(C)c(C)c1-n1c(=O)on(C(=O)N(c2ccc(F)cc2)C(C)C)c1=O [Compound 75]
Plant response rating, Wheat (winter) ([1]; Rate 250 g/ha, 0 to 100 scale): 10 | Plant response rating, Wheat (winter) [1, 13]: 20 | Plant response rating, Wheat (winter) [1, 25]: 65 | Ducksalad plant response rating [2, 26]: 0 | Ducksalad plant response rating [2, 27]: 0 | Ducksalad plant response rating [2, 28]: 0 | Ducksalad plant response rating [2, 29]: 0 | Plant response rating, Barley (winter) ([3]; Rate 250 g/ha, 0 to 100 scale): 10 | Plant response rating, Barley (winter) [3, 13]: 20 | Plant response rating, Barley (winter) [3, 25]: 60 | Plant response rating, Blackgrass ([4]; Rate 250 g/ha, 0 to 100 scale): 20 | Plant response rating, Blackgrass [4, 13]: 40 | Plant response rating, Blackgrass [4, 25]: 85 | Giant foxtail plant response rating [5, 26]: 3 | Giant foxtail plant response rating [5, 30]: 8 | Giant foxtail plant response rating [5, 31]: 6 | Plant response rating, Giant foxtail [5, 32]: 9 | Plant response rating, Giant foxtail [5, 33]: 9 | Giant foxtail plant response rating [5, 34]: 10 | Giant foxtail plant response rating [5, 35]: 6 | Giant foxtail plant response rating [5, 36]: 8 | Plant response rating, Wheat (winter) ([6]; Rate 250 g/ha, 0 to 100 scale (0 no effect, 100 complete control)): 60 | Plant response rating, Wheat (winter) ([6]; Rate 1000 g/ha, 0 to 100 scale, 0 is no effect and 100 is complete control): 70 | Plant response rating, Wheat (winter) ([6]; Rate 500 g/ha, 0 to 100 scale, 0 no effect, 100 complete control): 75 | Plant response rating, Wild oat [7, 25]: 10 | Morningglory plant response rating [8, 26]: 1 | Morningglory plant response rating [8, 30]: 1 | Morningglory plant response rating [8, 31]: 0 | Plant response rating, Morningglory [8, 32]: 0 | Plant response rating, Morningglory [8, 33]: 0 | Morningglory plant response rating [8, 34]: 2 | Morningglory plant response rating [8, 35]: 1 | Morningglory plant response rating [8, 36]: 3 | Plant response rating, I. Ryegrass ([9]; Rate 250 g/ha, 0 to 100 scale): 20 | Plant response rating, I. Ryegrass [9, 13]: 30 | Plant response rating, I. Ryegrass [9, 25]: 50 | Rice plant response rating [10, 26]: 2 | Rice plant response rating [10, 27]: 2 | Rice plant response rating [10, 28]: 2 | Rice plant response rating [10, 29]: 2 | Plant response rating, Green foxtail ([11]; Rate 250 g/ha, 0 to 100 scale): 60 | Plant response rating, Green foxtail [11, 13]: 60 | Plant response rating, Green foxtail [11, 25]: 60

CC(C)N(C(=O)n1oc(=O)n(CCC(F)=C(F)F)c1=O)c1ccc(F)cc1 [Compound 218]
Plant response rating, Wheat (winter) [1, 12]: 50 | Wheat (winter) plant response rating (0 to 100 scale) ([1]; Rate 250 g/ha): 40 | Plant response rating, Wheat (winter) [1, 13]: 50 | Ducksalad plant response rating [2, 14]: 0 | Ducksalad plant response rating [2, 15]: 0 | Ducksalad plant response rating [2, 16]: 0 | Ducksalad plant response rating [2, 37]: 0 | Plant response rating, Barley (winter) [3, 12]: 40 | Barley (winter) plant response rating (0 to 100 scale) ([3]; Rate 250 g/ha): 50 | Plant response rating, Barley (winter) [3, 13]: 65 | Plant response rating, Blackgrass [4, 12]: 65 | Blackgrass plant response rating (0 to 100 scale) ([4]; Rate 250 g/ha): 70 | Plant response rating, Blackgrass [4, 13]: 100 | Giant foxtail plant response rating [5, 18]: 9 | Giant foxtail plant response rating [5, 33]: 10 | Plant response rating, Giant foxtail [5, 38]: 10 | Giant foxtail plant response rating [5, 21]: 1 | Giant foxtail plant response rating [5, 22]: 5 | Giant foxtail plant response rating [5, 39]: 9 | Plant response rating (0 to 10; 0 is no effect, 10 is complete control), Giant foxtail ([5]; Rate 250 g/ha, Postemergence): 7 | Giant foxtail plant response rating [5, 23]: 8 | Plant response rating, Wheat (winter) ([6]; Rate 125 g/ha, 0 to 100 scale, 0 is no effect, 100 is complete control): 65 | Wheat (winter) plant response rating ([6]; Rate 250 g/ha, 0 to 100 scale where 0 is no effect and 100 is complete control): 70 | Plant response rating, Wheat (winter) [6, 24]: 85 | Plant response rating, Wild oat [7, 12]: 70 | Wild oat plant response rating (0 to 100 scale) [7]: 65 | Plant response rating, Wild oat [7, 13]: 70 | Morningglory plant response rating [8, 18]: 0 | Morningglory plant response rating [8, 33]: 0 | Plant response rating, Morningglory [8, 38]: 0 | Morningglory plant response rating [8, 21]: 3 | Morningglory plant response rating [8, 22]: 4 | Morningglory plant response rating [8, 39]: 0 | Plant response rating (0 to 10; 0 is no effect, 10 is complete control), Morningglory ([8]; Rate 250 g/ha, Postemergence): 8 | Morningglory plant response rating [8, 23]: 9 | Plant response rating, I. Ryegrass [9, 12]: 55 | I. Ryegrass plant response rating (0 to 100 scale) ([9]; Rate 250 g/ha): 60 | Plant response rating, I. Ryegrass [9, 13]: 70 | Rice plant response rating [10, 14]: 0 | Rice plant response rating [10, 15]: 0 | Rice plant response rating [10, 16]: 0 | Rice plant response rating [10, 37]: 0 | Plant response rating, Green foxtail [11, 12]: 30 | Green foxtail plant response rating (0 to 100 scale) ([11]; Rate 250 g/ha): 55 | Plant response rating, Green foxtail [11, 13]: 85

From patent publication US6737383B1, “Herbicidal oxadiazolidines” (priority 1999, dated 2004)
